Measurements: article PMC8951040, “Determination of Flavonoids in Selected Scleranthus Species and Their Anti-Collagenase and Antioxidant Potential” (Molecules, 2022)
“And” between values parts separate entries of the source, which are not always exact repeats. Equal entries are not always repeated.

How the values were obtained:
[1] = ABTS radical cation assay (antioxidant assay kit CS0790); conditions: 5 min incubation, absorbance 405 nm; mean ± SD, triplicate
Method: Suppression of the production of the radical cation was measured using an antioxidant assay kit (CS0790). In brief, 10 µL of the test sample, 20 µL of myoglobin working solution, and 150 µL of ABTS working solution (containing ABTS substrate solution and 3% hydrogen peroxide) were mixed into a clear, flat-bottom 96-well plate. After 5 min of incubation, 100 µL of stop solution was added and absorbance was measured at 405 nm. The antioxidant concentration of tested samples was calculated using the equation obtained through linear regression of the Trolox standard curve.

[2] = DPPH radical scavenging assay; conditions: 30 min incubation, absorbance 517 nm; mean ± SD, triplicate
Method: Individual test compounds and extracts in methanol (130 µL) were added to 70 µL of a solution of DPPH (2,2-diphenyl-1-picrylhydrazyl). After 30 min of incubation, the absorbance was evaluated at 517 nm. The determination was performed in triplicate and corrected to a blank sample (pure methanol). The radical scavenging activity of the tested samples was expressed as Trolox equivalents, calculated from the standard curve.

[3] = CUPRAC assay (antioxidant assay kit MAK334); conditions: 10 min incubation, absorbance 570 nm; mean ± SD, triplicate
Method: The reducing power of copper ions was evaluated using an antioxidant assay kit (MAK334). Briefly, 20 µL of sample and 100 µL of reaction mix were added into separate wells in a 96-well plate. After 10 min of incubation, the absorbance endpoint was measured at 570 nm. Total antioxidant capacity was determined using a standard curve evaluated for Trolox.

[4] = molecular target: collagenase from Clostridium histolyticum; assay: Anti-collagenase assay (FALGPA substrate); type: biochemical; conditions: 20 min at 37 °C, absorbance 335 nm, mean ± SD, triplicate
Method: The potential anti-collagenase activity was assessed as previously described. In short, a solution including 25 µL of collagenase from Clostridium histolyticum, 25 µL of Tricine buffer, and 25 µL of various levels of the extracts (SP1–SP6, SA1–SA6) or compounds (6–9) were incubated at 37 °C. After 20 min, 75 µL of FALGPA was added. Then, absorbance was measured at 335 nm. The experiment was performed in 50 mM Tris buffer. The blank was evaluated using Tricine buffer, instead of sample, and the positive control was epigallocatechin gallate (EGCG). All measurements were conducted in triplicate and the IC50 for each sample was calculated. The percentage of collagenase inhibitory activity (CoInh) was calculated as follows:Enzyme inhibition activity (%) = [1 − (B/S)] × 100%, where B is the blank and S is the sample.

[5] = FRAP ferric reducing antioxidant power assay kit; conditions: 1 h at 37 °C, absorbance 594 nm; mean ± SD, triplicate
Method: The […] of the investigated substances toward ferrous ions was assessed using a ferric reducing antioxidant power assay kit. Briefly, 10 µL of each sample (SP1–SP6, SA1–SA6, 1–9) was mixed with 190 µL of supplied reaction mix (containing FRAP Assay Buffer, FeCl3 solution, and FRAP Probe). After 1 h of incubation at 37 °C, the absorbance was measured at 594 nm. A blank solution containing 10 µL of MeOH instead of extract/compound solution was used. For further calculations, the ferrous standard curve was evaluated. Values are given as mM Ferrous equivalents. All tests were performed in triplicate.

Compound	ABTS (radical scavenging activity, Trolox equivalents) [1]	DPPH (radical scavenging activity, Trolox equivalents) [2]	CUPRAC (Trolox equivalents) [3]	melting point	IC50 [4]	FRAP (Fe2+ equivalents) [5]
COc1ccc(C(C)=O)c(O[C@@H]2O[C@H](CO[C@@H]3OC[C@](O)(CO)[C@H]3O)[C@@H](O)[C@H](O)[C@H]2O)c1 [Compound 5, Apiopaeonoside]	444.23 ± 0.47 µM Teq	61.96 ± 1.90 µM Teq	48.46 ± 1.75 µM Teq			
COc1cc(-c2cc(=O)c3c(O)cc(O)c(C4OCC(O)C(O)C4OC4OC(CO)C(OC(C)=O)C(O)C4O)c3o2)ccc1OC(C)=O [Compound 6, 5,7-dihydroxy-3′-methoxy-4′-acetoxyflavone-8-C-β-D-arabinopyranoside-2″-O-(4‴-acetoxy)-glucoside]	169.27 ± 1.68 µM Teq	6.69 ± 0.97 µM Teq	18.57 µM Teq and 18.57 ± 0.76 µM Teq	187 to 188 °C	39.6 ± 1.21 µM	
O=c1cc(-c2ccc(O)c(O)c2)oc2c(C3OC(CO)C(O)C(O)C3O)c(O)c(C3OCC(O)C(O)C3O)c(O)c12 [Compound 7, 5,7,3′,4′-tetrahydroxyflavone-6-C-xyloside-8-C-β-D-glucoside]	796.61 ± 1.23 µM Teq	409.16 ± 2.03 µM Teq	116.16 µM Teq and 116.16 ± 0.76 µM Teq		73.9 ± 1.03 µM	
O=c1cc(-c2cccc(O)c2)oc2c(C3OC(CO)C(O)C(O)C3O)c(O)c(C3OC(CO)C(O)C(O)C3O)c(O)c12 [Compound 8, 5,7,3′-trihydroxyflavone-6-C-glucoside-8-C-β-D-glucoside]	369.24 ± 3.05 µM Teq	176.71 ± 0.97 µM Teq	27.15 ± 1.32 µM Teq		53.4 ± 0.88 µM	5.16 ± 0.96 mM Fe2+ equivalents
COc1cc(-c2cc(=O)c3c(O)c(C4OC(CO)C(O)C(O)C4O)c(O)c(C4OCC(O)C(O)C4O)c3o2)ccc1O [Compound 9, 5,7,4′-trihydroxy-3′-methoxyflavone-6-C-β-D-glucopyranoside-8-C-α-arabinopyranoside]	586.69 ± 2.91 µM Teq	407.05 ± 1.83 µM Teq	18.20 ± 0.76 µM Teq		71.1 ± 0.97 µM	9.07 ± 0.45 mM Fe2+ equivalents
O=C(O[C@@H]1Cc2c(O)cc(O)cc2O[C@@H]1c1cc(O)c(O)c(O)c1)c1cc(O)c(O)c(O)c1 [EGCG, epigallocatechin gallate, reference compound]					34.8 ± 0.53 µM	
scleranthoside A [Compound 1]	765.16 ± 2.83 µM Teq	405.15 ± 3.12 µM Teq	581.32 µM Teq and 581.32 ± 3.61 µM Teq			
scleranthoside B [Compound 2]	188.57 ± 1.86 µM Teq	198.43 ± 2.40 µM Teq	114.56 ± 2.04 µM Teq			5.68 ± 0.68 mM Fe2+ equivalents
scleranthoside C [Compound 3]	198.57 ± 2.46 µM Teq	7.11 ± 0.59 µM Teq	67.30 µM Teq and 67.30 ± 1.30 µM Teq			
scleranthoside D [Compound 4]	302.05 ± 2.42 µM Teq	9.64 ± 0.82 µM Teq	44.22 ± 1.35 µM Teq			2.65 ± 0.47 mM Fe2+ equivalents
